The source of these data is patent US8575201B2 (Boehringer Ingelheim International GmbH, priority 2010, dated 2013).

The target in experiment [1] is recombinant human FLAP protein (Homo sapiens (Human), UniProt P20292). As to the kind of experiment: FLAP binding assay (Scintillation Proximity Assay, displacement of [125I]L-691,831). The settings on record: read-out: FLAP SPA IC50. In outline:
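Scintillation proximity displacement of an iodinated (125I) FLAP inhibitor by test compounds, using 100,000×g membrane fraction from lysed cells. Final beads 200 μg/well and protein 5 μg/well; plates shaken 2 h before reading.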

Experiment [2] deals with synthesis of LTB4 in human whole blood. Put plainly: Human whole blood LTB4 production inhibition assay. It counts as cell-based. The settings on record: calcimycin stimulated, read-out: hWB LTB4 IC50. In outline: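 LTB4 levels in plasma were measured by antibody-based HTRF after heparinized human whole blood, pretreated with compound (15 min, 37° C), was challenged with 20 μM calcimycin for 30 min at 37° C.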

Chain of recombinant human FLAP protein (P20292 whole entry): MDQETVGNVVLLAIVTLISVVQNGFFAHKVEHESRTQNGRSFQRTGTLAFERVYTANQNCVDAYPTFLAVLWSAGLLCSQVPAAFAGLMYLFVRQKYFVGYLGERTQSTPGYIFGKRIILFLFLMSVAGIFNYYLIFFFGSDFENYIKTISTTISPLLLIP

Broadly, the IC50 is the point on the concentration scale where inhibition reaches its midpoint. Regarding `Nc1ncc(-c2ccc(C3(c4noc(-c5cncnc5)n4)CCC3)cn2)cn1` [Example 100, 5-(5-{1-[5-(pyrimidin-5-yl)-1,2,4-oxadiazol-3-yl]cyclobutyl}pyridin-2-yl)pyrimidin-2-amine], the 50% inhibitory concentration (IC50) in experiment [1] was determined as 120 nM; in experiment [2], 960 nM.

Turning to `Cc1cc(-c2nc(C3(c4ccc(-c5cnc(N)nc5)nc4)CCC3)no2)ccn1` [Example 101, 5-(5-{1-[5-(2-methylpyridin-4-yl)-1,2,4-oxadiazol-3-yl]cyclobutyl}pyridin-2-yl)pyrimidin-2-amine], the IC50 in experiment [1] came to 24 nM; in experiment [2], 820 nM.

In the case of `Cn1cc(-c2nc(C3(c4ccc(-c5cnc(N)nc5)nc4)CCC3)no2)cn1` [Example 102, 5-(5-{1-[5-(1-methyl-1H-pyrazol-4-yl)-1,2,4-oxadiazol-3-yl]cyclobutyl}pyridin-2-yl)pyrimidin-2-amine], the concentration for half-maximal inhibition (IC50) in experiment [1] stood at 13 nM; in experiment [2] it was 270 nM.

In the case of `Cc1n[nH]c(C)c1-c1nc(C2(c3ccc(-c4cnc(N)nc4)nc3)CCC2)no1` [Example 103, 5-(5-{1-[5-(3,5-dimethyl-1H-pyrazol-4-yl)-1,2,4-oxadiazol-3-yl]cyclobutyl}pyridin-2-yl)pyrimidin-2-amine], the results for the concentration for half-maximal inhibition (IC50) in experiment [1] and in experiment [2] were 14 nM and 1000 nM, respectively.

Consider `Nc1ncc(-c2ccc(C3(c4noc(-c5ccnnc5)n4)CCC3)cn2)cn1` [Example 104, 5-(5-{1-[5-(pyridazin-4-yl)-1,2,4-oxadiazol-3-yl]cyclobutyl}pyridin-2-yl)pyrimidin-2-amine], for which the IC50 in experiment [1] came out at 110 nM; in experiment [2] it was 2100 nM.

On to `Nc1ncc(-c2ccc(C3(c4noc(-c5cccnc5N)n4)CCC3)cn2)cn1` [Example 105, 5-(5-{1-[5-(2-aminopyridin-3-yl)-1,2,4-oxadiazol-3-yl]cyclobutyl}pyridin-2-yl)pyrimidin-2-amine], for which the IC50 in experiment [1] came out at 17 nM; in experiment [2], 570 nM.

For `Nc1ncc(-c2ccc(C3(c4noc(-c5cnccc5N)n4)CCC3)cn2)cn1` [Example 106, 5-(5-{1-[5-(4-aminopyridin-3-yl)-1,2,4-oxadiazol-3-yl]cyclobutyl}pyridin-2-yl)pyrimidin-2-amine], the IC50 was found to be 31 nM in experiment [1] and 840 nM in experiment [2].

Consider `Nc1ncc(-c2ccc(C3(c4noc(-c5cnccc5O)n4)CCC3)cn2)cn1` [Example 107, 3-(3-{1-[6-(2-aminopyrimidin-5-yl)pyridin-3-yl]cyclobutyl}-1,2,4-oxadiazol-5-yl)pyridin-4-ol], for which the values for the IC50 in experiment [1] and in experiment [2] were 190 nM and 4000 nM, respectively.

With `Nc1ncc(-c2ccc(C3(c4noc(-c5ccc(=O)[nH]c5)n4)CCC3)cn2)cn1` [Example 108, 5-(3-{1-[6-(2-aminopyrimidin-5-yl)pyridin-3-yl]cyclobutyl}-1,2,4-oxadiazol-5-yl)pyridin-2(1H)-one], the IC50 in experiment [1] is 48 nM; in experiment [2], 720 nM.

Consider `Nc1ncc(-c2ccc(C3(c4noc(-c5cccnc5C(F)(F)F)n4)CCC3)cn2)cn1` [Example 109, 5-[5-(1-{5-[2-(trifluoromethyl)pyridin-3-yl]-1,2,4-oxadiazol-3-yl}cyclobutyl)pyridin-2-yl]pyrimidin-2-amine], for which the IC50 in experiment [1] is 14 nM; in experiment [2], 1500 nM.

As for `CN(C)c1ccc(-c2nc(C3(c4ccc(-c5cnc(N)nc5)nc4)CCC3)no2)cn1` [Example 110, 5-[5-(1-{5-[6-(dimethylamino)pyridin-3-yl]-1,2,4-oxadiazol-3-yl}cyclobutyl)pyridin-2-yl]pyrimidin-2-amine], the half-maximal inhibitory concentration (IC50) is 2.4 nM in experiment [1] and 310 nM in experiment [2].

Take `Nc1ccc(-c2nc(C3(c4ccc(-c5cnc(N)nc5)nc4)CCC3)no2)cn1` [Example 111, 5-(5-{1-[5-(6-aminopyridin-3-yl)-1,2,4-oxadiazol-3-yl]cyclobutyl}pyridin-2-yl)pyrimidin-2-amine]: the results for the IC50 in experiment [1] and in experiment [2] were 4.2 nM and 74 nM, respectively.

Regarding `Nc1ncc(-c2ccc(C3(c4noc(-c5ccc(N6CCCC6)nc5)n4)CCC3)cn2)cn1` [Example 112, 5-[5-(1-{5-[6-(pyrrolidin-1-yl)pyridin-3-yl]-1,2,4-oxadiazol-3-yl}cyclobutyl)pyridin-2-yl]pyrimidin-2-amine], the 50% inhibitory concentration (IC50) was 3.3 nM in experiment [1] and 570 nM in experiment [2].

As for `CNc1ccc(-c2nc(C3(c4ccc(-c5cnc(N)nc5)nc4)CCC3)no2)cn1` [Example 113, 5-[5-(1-{5-[6-(methylamino)pyridin-3-yl]-1,2,4-oxadiazol-3-yl}cyclobutyl)pyridin-2-yl]pyrimidin-2-amine], the half-maximal inhibitory concentration (IC50) in experiment [1] came to 2.4 nM; in experiment [2], 100 nM.

As for `CC(C)Nc1ccc(-c2nc(C3(c4ccc(-c5cnc(N)nc5)nc4)CCC3)no2)cn1` [Example 114, 5-[5-(1-{5-[6-(propan-2-ylamino)pyridin-3-yl]-1,2,4-oxadiazol-3-yl}cyclobutyl)pyridin-2-yl]pyrimidin-2-amine], the IC50 in experiment [1] worked out at 1.5 nM; in experiment [2] it was 280 nM.

With `Nc1ncc(-c2ccc(C3(c4noc(-c5ccc(NCCO)nc5)n4)CCC3)cn2)cn1` [Example 115, 2-{[5-(3-{1-[6-(2-aminopyrimidin-5-yl)pyridin-3-yl]cyclobutyl}-1,2,4-oxadiazol-5-yl)pyridin-2-yl]amino}ethanol], the IC50 came to 1.9 nM in experiment [1] and 49 nM in experiment [2].

As for `CN(CCO)c1ccc(-c2nc(C3(c4ccc(-c5cnc(N)nc5)nc4)CCC3)no2)cn1` [Example 116, 2-{[5-(3-{1-[6-(2-aminopyrimidin-5-yl)pyridin-3-yl]cyclobutyl}-1,2,4-oxadiazol-5-yl)pyridin-2-yl](methyl)amino}ethanol], the concentration for half-maximal inhibition (IC50) stood at 4.3 nM in experiment [1] and 140 nM in experiment [2].

On to `COCCN(C)c1ccc(-c2nc(C3(c4ccc(-c5cnc(N)nc5)nc4)CCC3)no2)cn1` [Example 117, 5-{5-[1-(5-{6-[(2-methoxyethyl)(methyl)amino]pyridin-3-yl}-1,2,4-oxadiazol-3-yl)cyclobutyl]pyridin-2-yl}pyrimidin-2-amine], for which the IC50 in experiment [1] came out at 3 nM; in experiment [2], 120 nM.

In the case of `COCCNc1ccc(-c2nc(C3(c4ccc(-c5cnc(N)nc5)nc4)CCC3)no2)cn1` [Example 118, 5-{5-[1-(5-{6-[(2-methoxyethyl)amino]pyridin-3-yl}-1,2,4-oxadiazol-3-yl)cyclobutyl]pyridin-2-yl}pyrimidin-2-amine], the IC50 in experiment [1] stood at 2.8 nM; in experiment [2], 84 nM.

As to `CS(=O)(=O)c1ccc(-c2nc(C3(c4ccc(-c5cnc(N)nc5)nc4)CCC3)no2)cn1` [Example 119, 5-[5-(1-{5-[6-(methylsulfonyl)pyridin-3-yl]-1,2,4-oxadiazol-3-yl}-cyclobutyl)pyridin-2-yl]pyrimidin-2-amine], the values for the IC50 in experiment [1] and in experiment [2] were 62 nM and 230 nM, respectively.

Consider `Nc1ncc(-c2ccc(C3(c4noc(-c5nc[nH]n5)n4)CCC3)cn2)cn1` [Example 120, 5-(5-{1-[5-(1H-1,2,4-triazol-3-yl)-1,2,4-oxadiazol-3-yl]cyclobutyl}pyridin-2-yl)pyrimidin-2-amine], for which the IC50 in experiment [1] was 200 nM; in experiment [2] it was > 5000 nM.

Turning to `Cc1cc(-c2nc(C3(c4ccc(-c5cnc(N)nc5)nc4)CCC3)no2)n(C)n1` [Example 121, 5-(5-{1-[5-(1,3-dimethyl-1H-pyrazol-5-yl)-1,2,4-oxadiazol-3-yl]cyclobutyl}pyridin-2-yl)pyrimidin-2-amine], the results for the IC50 in experiment [1] and in experiment [2] were 28 nM and 1800 nM, respectively.
